Laboratory results: patent US20240254119A1 (THIRD HARMONIC BIO, INC., priority 2022, published 2024)

Tests used:
[1] = tested on: KIT phosphorylation in M-07e cells; assay: Cell-based KIT phosphorylation in M-07e cells by pKIT ELISA; design: species or system human; settings: SCF stimulation
How it was run: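 Serum-starved M-07e cells (1 × 10^6/mL, overnight) were treated with compounds (8-point 3-fold series from 1 uM) for 2 h at 37 °C, then stimulated with 100 ng/mL SCF for 5 min. Lysate phospho-KIT was captured on anti-phospho-CD117 plates, detected with anti-pY-HRP, and read at 450 nm against a pc-KIT standard curve.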

CYP3A4 = assay: Hepatocyte CYP induction assay, CYP3A4 gene expression; type: in vitro ADME; settings: human hepatocytes
Experimental: Exemplary compounds were tested for ability to induce CYP3A4 and/or CYP1A2 in hepatocytes. Procedures and results are described below.
Cryopreserved human hepatocytes were purchased from BioIVT (Baltimore, MD, USA), and they were stored in liquid nitrogen before using. The detailed information of hepatocytes is as follows:
Fresh dosing solutions of test compounds, and Rifampicin were prepared in the incubation medium on the day of dosing.
Cryopreserved hepatocytes were thawed and counted to determine yield, viability was measured. Hepatocytes at the concentrations of 0.7 million/mL were transferred to collagen-coated 96-well plates for attachment (0.1 mL viable cells/well). After allowing 4 to 5 hours for attachment of cells, the plating medium was replaced with Incubation Medium containing 2% (v/v) Matrigel™ (sandwich medium) and the hepatocytes were incubated until use.
All incubations were conducted at 37° C., 5% CO2, and saturated humidity.
The sandwich medium was removed and the hepatocytes were treated with incubation solutions containing test articles in vehicle (0.1% DMSO), or positive control for 24 hours after the cultures were established. The incubation solution was aspirated and replaced with incubation solution containing the same concentrations of test articles, vehicle, or positive controls for an additional 24 hours. The total treatment period was 48 hours. Triplicate were used for each concentration of test compound and positive control.
After treatment period of 48 hours, the incubation solution was aspirated. Hepatocytes were washed once with pre-warmed HBSS and incubated with 140 μL of RLT (lysis buffer from Rneasy 96 Kit) supplemented with 1% β-mercaptoethanol. Plates were then stored at ≤−60° C. freezer until RNA analysis.
Before RNA extraction, the frozen plate was thawed and cell lysates were transferred to 96-well plates. RNA isolation was performed using QIAcube HT System. RNA concentration was measured with NanoDrop ND-2000 spectrophotometer. The purity of RNA preparation was calculated by the ratio of the OD260 nm/OD280 nm and the acceptable range is between 1.8 and 2.2. Reverse transcription was performed to obtain cDNA. Quantification of the selective genes by real time quantitative Polymerase Chain Reaction (qPCR) was performed with TaqMan universal PCR Master Mix on the BIO-RAD CFX 384 Touch Real Time PCR System. The following setting were used: 50° C. for 2 minutes, 95° C. for 10 minutes, 40 cycles of 95° C. for 15 seconds and 60° C. for 1 minute. 18S rRNA was used as the internal standard.
To account for variation in RNA yields and reverse transcription polymerase chain reaction (RT-PCR), the gene of interest in all samples was normalized to an internal control gene (18S ribosomal RNA) (Cttarget gene−Ct18S=ΔCt).
The relative quantitation or change in mRNA level of selected genes induced by each test compound was expressed in relation to the vehicle control sample (Δctcompound−ΔCtvehicle=ΔΔCt). Fold changes in gene expression were determined by taking 2 to the power of this value (2^−ΔΔt).
% of positive control [(fold change in treated sample)−1]/[(fold change in positive control)−1]×100

Structure (SMILES) | IC50 [1] | other results
Cc1ccc(-c2noc(C3CCC(F)C3)n2)cc1NC(=O)c1cnc2ccccn12 (racemic) [Compound I-319] | ≤ 50 nM | –
Cc1ccc(-c2noc([C@H]3CCC(=O)N3)n2)cc1NC(=O)c1cnc2ccccn12 (racemic) [Compound I-327] | – | CYP 3A4 induction mRNA: Mean fold at 10 μM (CYP3A4; donor five): + (induction fold of less than or equal to 2-fold); CYP 3A4 induction mRNA: Mean fold at 10 μM (CYP3A4; donor four): + (induction fold of less than or equal to 2-fold); CYP 3A4 induction mRNA: Mean fold at 10 μM (CYP3A4; donor three): + (induction fold of less than or equal to 2-fold)
Cc1ccc(-c2noc(CC(C)O)n2)cc1NC(=O)c1cnc2ccccn12 (racemic) [Compound I-363] | – | CYP 3A4 induction mRNA: Mean fold at 10 μM (CYP3A4; donor five): + (induction fold of less than or equal to 2-fold); CYP 3A4 induction mRNA: Mean fold at 10 μM (CYP3A4; donor four): + (induction fold of less than or equal to 2-fold); CYP 3A4 induction mRNA: Mean fold at 10 μM (CYP3A4; donor three): + (induction fold of less than or equal to 2-fold)
Cc1ccc(-c2noc(C3CCC3F)n2)cc1NC(=O)c1cnc2ccccn12 (racemic) [Compound I-376] | ≤ 50 nM | –
Cc1ccc(-c2noc(C3CCC3F)n2)cc1NC(=O)c1cnc2ccccn12 (racemic) [Compound I-377] | ≤ 50 nM | –
Cc1ccc(-c2noc(C3CCN3)n2)cc1NC(=O)c1cnc2ccccn12 (racemic) [Compound I-394] | – | CYP 3A4 induction mRNA: Mean fold at 10 μM (CYP3A4; donor five): + (induction fold of less than or equal to 2-fold); CYP 3A4 induction mRNA: Mean fold at 10 μM (CYP3A4; donor four): + (induction fold of less than or equal to 2-fold); CYP 3A4 induction mRNA: Mean fold at 10 μM (CYP3A4; donor three): + (induction fold of less than or equal to 2-fold)
COc1ccn2c(C(=O)Nc3cc(-c4noc(CC(O)C(F)F)n4)ccc3C)cnc2c1 (single isomer, unassigned) [Compound I-76] | ≤ 50 nM | –
COC(=O)N1CC(c2nc(-c3ccc(C)c(NC(=O)c4cnc5cc(O[C@@H](C)CO)ccn45)c3)no2)C1 (single isomer, unassigned) [Compound I-217] | 50 to 500 nM | –
Cc1ccc(-c2noc(C(C)NS(C)(=O)=O)n2)cc1NC(=O)c1cnc2ccccn12 (single isomer, unassigned) [Compound I-237] | 50 to 500 nM | –
Cc1ccc(-c2noc(C(C)NS(C)(=O)=O)n2)cc1NC(=O)c1cnc2ccccn12 (single isomer, unassigned) [Compound I-238] | 50 to 500 nM | –
Cc1ccc(-c2noc([C@H]3C[C@@H]3F)n2)cc1NC(=O)c1cnc2cc(COCC(C)(C)O)ccn12 [Compound I-71, N-[5-[5-[(1R,2S)-2-fluorocyclopropyl]-1,2,4-oxadiazol-3-yl]-2-methyl-phenyl]-7-[(2-hydroxy-2-methyl-propoxy)methyl]imidazo[1,2-a]pyridine-3-carboxamide] | – | IC50 ([1]; Homo sapiens): ≤ 50 nM; CYP 3A4 induction mRNA: Mean fold at 10 μM (CYP3A4; donor five): + (induction fold of less than or equal to 2-fold); CYP 3A4 induction mRNA: Mean fold at 10 μM (CYP3A4; donor four): + (induction fold of less than or equal to 2-fold); CYP 3A4 induction mRNA: Mean fold at 10 μM (CYP3A4; donor one): + (induction fold of less than or equal to 2-fold)
COCCOCc1ccn2c(C(=O)Nc3cc(-c4noc([C@H]5C[C@@H]5F)n4)ccc3C)cnc2c1 [Compound I-84] | ≤ 50 nM | CYP 3A4 induction mRNA: Mean fold at 10 μM (CYP3A4; donor four): + (induction fold of less than or equal to 2-fold)
Cc1ccc(-c2noc([C@H]3C[C@@H]3F)n2)cc1NC(=O)c1cnc2cc(OC(F)(F)F)ccn12 [Compound I-87] | ≤ 50 nM | CYP 3A4 induction mRNA: Mean fold at 10 μM (CYP3A4; donor four): + (induction fold of less than or equal to 2-fold)
Cc1ccc(-c2noc([C@H]3C[C@@H]3F)n2)cc1NC(=O)c1cnc2cc(OC(C)C)ccn12 [Compound I-88] | ≤ 50 nM | CYP 3A4 induction mRNA: Mean fold at 10 μM (CYP3A4; donor five): + (induction fold of less than or equal to 2-fold); CYP 3A4 induction mRNA: Mean fold at 10 μM (CYP3A4; donor four): + (induction fold of less than or equal to 2-fold); CYP 3A4 induction mRNA: Mean fold at 10 μM (CYP3A4; donor one): + (induction fold of less than or equal to 2-fold)
COc1ccn2c(C(=O)Nc3cc(-c4noc(CC5CC(F)(F)C5)n4)ccc3C)cnc2c1 [Compound I-91] | ≤ 50 nM | –
CCOc1ccn2c(C(=O)Nc3cc(-c4noc([C@H]5C[C@@H]5F)n4)ccc3C)cnc2c1 [Compound I-93] | ≤ 50 nM | –
COc1ccn2c(C(=O)Nc3cc(-c4noc(C[C@H](C)O)n4)ccc3C)cnc2c1 [Compound I-94] | ≤ 50 nM | –
COc1ccn2c(C(=O)Nc3cc(-c4noc(C5CC(F)(F)C5)n4)ccc3C)cnc2c1 [Compound I-96] | ≤ 50 nM | –
Cc1ccc(-c2noc([C@H]3C[C@@H]3F)n2)cc1NC(=O)c1cnn2ccccc12 [Compound I-109] | ≤ 50 nM | –
Cc1ccc(-c2noc(CC(O)C(F)F)n2)cc1NC(=O)c1cnc2ccccn12 (stereo not drawn) [Compound I-122] | ≤ 50 nM | –

Structure (SMILES) | IC50 [1] | other results
Cc1ccc(-c2noc(CC3CC(F)(F)C3)n2)cc1NC(=O)c1cnc2ccccn12 [Compound I-124] | ≤ 50 nM | –
Cc1ccc(-c2noc(CC3CC3(F)F)n2)cc1NC(=O)c1cnc2ccccn12 (stereo not drawn) [Compound I-125] | ≤ 50 nM | –
Cc1nc(-c2ccc(C)c(NC(=O)c3cnc4cc(C(F)F)ccn34)c2)no1 [Compound I-134] | 500 to 5000 nM | –
Cc1nc(-c2ccc(Cl)c(NC(=O)c3cnc4ccccn34)c2)no1 [Compound I-172] | 500 to 5000 nM | –
COC(=O)N1CC(c2nc(-c3ccc(C)c(NC(=O)c4cnn5cc(C#N)ccc45)c3)no2)C1 [Compound I-204] | 50 to 500 nM | –
Cc1nc(-c2ccc(C)c(NC(=O)c3cnc4ccc(N(C)C)cn34)c2)no1 [Compound I-205] | ≤ 50 nM | –
Cc1ccc(-c2cnc(N3CC(F)(F)C3)o2)cc1NC(=O)c1cnc2ccccn12 [Compound I-213] | 50 to 500 nM | –
COCCS(=O)(=O)N1CC(c2nc(-c3ccc(C)c(NC(=O)c4cnc5ccccn45)c3)no2)C1 [Compound I-235] | 50 to 500 nM | –
COC(=O)N1CC(c2nc(-c3ccc(C)c(NC(=O)c4cnc5cc(OC[C@H](C)O)ccn45)c3)no2)C1 [Compound I-262] | ≤ 50 nM | –
COC(=O)N1CC(c2nc(-c3ccc(C)c(NC(=O)c4cnc5cc(OC[C@@H](C)O)ccn45)c3)no2)C1 [Compound I-263] | ≤ 50 nM | –
COC(=O)N1CC(c2nc(-c3ccc(C)c(NC(=O)c4cnn5ccc(Br)cc45)c3)no2)C1 [Compound I-280] | ≤ 50 nM | –
Cc1ccc(-c2noc(CCO)n2)cc1NC(=O)c1cnc2ccccn12 [Compound I-306] | ≤ 50 nM | –
Cc1ccc(-c2noc(CC(C)(C)O)n2)cc1NC(=O)c1cnc2ccccn12 [Compound I-336] | ≤ 50 nM | –
Cc1ccc(-c2noc(CO)n2)cc1NC(=O)c1cnc2ccccn12 [Compound I-337] | ≤ 50 nM | –
COC(=O)N1CC(c2nc(-c3ccc(Cl)c(NC(=O)c4cnc5ccccn45)c3)no2)C1 [Compound I-339] | ≤ 50 nM | –
O=C(Nc1cc(-c2noc([C@H]3C[C@@H]3F)n2)ccc1Cl)c1cnc2ccccn12 [Compound I-341] | 50 to 500 nM | –
Cc1nc(-c2ccc(C)c(NC(=O)c3cnc4ccccn34)c2)no1 [Compound I-360] | ≤ 50 nM | –
Cc1ccc(-c2noc(C3CC4(CCC4)C3)n2)cc1NC(=O)c1cnc2ccccn12 [Compound I-367] | ≤ 50 nM | –
Cc1ccc(-c2noc(C3CC(F)C3)n2)cc1NC(=O)c1cnc2ccccn12 (stereo not drawn) [Compound I-381] | ≤ 50 nM | –
Cc1ccc(-c2noc(C3CC(C)(F)C3)n2)cc1NC(=O)c1cnc2ccccn12 (stereo not drawn) [Compound I-387] | ≤ 50 nM | –
